Results from patent US12545695B2, “Compounds for inhibiting neovascularization factors and use thereof” (UNIST (ULSAN NATIONAL INSTITUTE OF SCIENCE AND TECHNOLOGY), priority 2019, dated 2026).

What was measured:
TRAP-1 [1] = test: Pull-down assay: client proteins SIRT3 and SDHB on GST-TRAP1 beads; format: binding; details: TRAP1-bead form with isolated mitochondria and drug, 4° C., 18 hours (FIG. 14)
Protocol: A pull-down assay was performed to confirm whether SMx competitively binds to SIRT3 and SDHB, which are known as client proteins of TRAP-1. TRAP1 protein in the GST fusion form was purified from bacteria cells and then bound to glutathione beads to make a TRAP1-bead form, and then the TRAP1-bead form was bound to the mitochondria isolated from mammalian cells (Thermo Scientific mitochondria isolation kit) with a drug at 4° C. for 18 hours. The cells were treated with SMx, and gamitrinib and PU-H71, which are previously developed N-terminal domain inhibitors of hsp90s, as the drugs, according to the concentrations shown in the drawing. […] This is strong evidence that SMx has the ability to bind to the middle domain of TRAP-1.

TRAP-1 [2] = test: ATPase activity assay (PiColorLock Gold Phosphate Detection Kit); format: biochemical; details: TRAP1 0.5 μM, 0.2 mM ATP, inhibitor 0.520 μM preincubated 30 minutes (FIG. 16)
Protocol: ATPase activity was measured by measuring the release of inorganic phosphates through the PiColorLock Gold Phosphate Detection Kit (Innova Biosciences) according to the manufacturer's manual. TRAP1 (0.5 μM) was cultured with 0.2 mM ATP in 100 mM Tris, 20 mM KCl, and 6 mM MgCl2 under the conditions of pH 7.0 and 37° C. for 3 hours. Thereafter, the PiColorLock Gold reagent and an accelerator (100:1) were added to a 100 μL ATP hydrolyzate sample. After culturing at 25° C. for 5 minutes, the change in color was stopped by adding 10 μL of a stop solution thereto, and the absorbance at 620 nm was measured by SYNERGY NEO microplate reader (BioTek Instruments).
For inhibitory ability analysis, TRAP1 was cultured with a predetermined concentration (0.520 μM) of inhibitor for 30 minutes and then stirred with ATP. Absorbance values were normalized to a DMSO control and data was expressed as % ATPase activity.
For inhibitory ability analysis, TRAP-1 was cultured with a predetermined concentration (0.520 μM) of inhibitor for 30 minutes and then stirred with ATP. Absorbance values were normalized to a DMSO control and data was expressed as % ATPase activity.

[3] = test system: oxygen-induced retinopathy mouse model; test: Oxygen-induced retinopathy mouse model, eye drop administration, retinal vascular analysis; format: in vivo, C57BL/6J mice; details: 1 mM in Liposic, eye drops 3 times a day, P12 to P17; versus control eye (FIG. 18, 19)
Excerpt: An oxygen-induced retinopathy mouse model was induced by rearing young C57BL/6J (Hyochang Science Inc.) mice aged 7 days after birth (P7) in a hyperoxic chamber (Coy Lab. in vivo chamber, 75% O2) for 5 days (P12), and then rearing the mice in a normoxic environment for 5 days (P17).
An oxygen-induced retinopathy mouse model was induced by rearing young C57BL/6J (Hyochang Science Inc.) mice aged 7 days after birth (P7) in a hyperoxic chamber (Coy Lab. in vivo chamber, 75% O2) for 5 days (P12), and then rearing the mice in a normoxic environment for 5 days (P17). SMx was diluted with Liposic (solvent) to 1 mM during P12 to P17 (5 days), which is the period of time when oxygen-induced retinopathy is induced from normal oxygen, and then administered by eye drops 3 times a day. The right eye was administered SMx, and the left eye was administered the control Liposic.
The oxygen-induced retinopathy mouse model was formed, and then perfused with 1×PBS and 4% PFA. After mouse eyes were extracted and fixed in 4% PFA, the retinas were isolated. The isolated retinas were washed with 1×PBS, and then blocked (0.1% BSA, 0.1% Triton X-100 in 1×PBS) at room temperature for 1 hour. The retinas were treated with a CD31 blood-vessel staining antibody (CD31, Cell Signaling, 1:100) overnight at 4° C. […] Blood vessel staining was analyzed under a fluorescence microscope (Zen, Axio Zoom). […]

- binding of the client protein (SIRT3, SDHB) to TRAP-1 (TRAP-1 [1]): significantly reduced
SMILES: COC1=C(OC)C(=O)C(CCCCCCCCCC[P+](c2ccccc2)(c2ccccc2)c2ccccc2)=C(C)C1=O [SMx]
- ATPase activity of TRAP-1 (TRAP-1 [2]): significantly increased according to the concentration
- avascular area [3]: significantly reduced
- neovascular area [3]: significantly reduced
